We go through one molecule from paper PMC10046769, “An Impedimetric Biosensor for Detection of Volatile Organic Compounds in Food” (Biosensors, 2023).

The target in this experiment is T1, pig odorant-binding protein (pOBP) (Sus scrofa, UniProt P81245).
T1 construct: recombinant pOBP, GST tag removed by thrombin; monomer of 157 amino acids
T1 sequence (P81245 1-157): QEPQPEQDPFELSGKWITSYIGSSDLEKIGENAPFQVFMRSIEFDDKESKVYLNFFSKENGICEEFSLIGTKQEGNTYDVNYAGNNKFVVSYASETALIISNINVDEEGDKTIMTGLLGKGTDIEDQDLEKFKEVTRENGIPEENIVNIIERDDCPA
Briefly: competitive FRET displacement of 1-AMA; also impedance (EIS) with immobilised pOBP.

SMILES strings stand for the structures.

What is called Kd is the concentration at which binding is half-saturated. A higher Kd goes with weaker binding.

Regarding `C=CC(O)CCCCC` (stereo not shown) [1-octen-3-ol], the Kd is 18.5 mM.
